Experimental data published in patent US10815213B2, “Bruton's tyrosine kinase inhibitors” (Pfizer Inc., priority 2013, dated 2020).

Assays:
[1] = biological target: human full-length BTK Kinase (Homo sapiens (Human), UniProt Q06187); assay: Human BTK LanthaScreen Assay (TR-FRET); format: biochemical; conditions: 50 μM ATP, 70 pM BTK, 100 nM FAM-Srctide; run with and without 60 minutes pre-incubation (table does not say which); read-out: BTK Inhibition IC50
human EGFR kinase domain = human EGFR kinase domain (Homo sapiens (Human), UniProt P00533); assay: Human EGFR LanthaScreen Selectivity Assay (TR-FRET); format: biochemical; conditions: 20 μM ATP, 600 pM EGFR kinase domain; run with and without 60 minutes pre-incubation
Method: The kinase reaction mixtures were incubated at room temperature for 60 minutes before stopping the kinase activity by the addition of 15 mM EDTA. The extent of peptide phosphorylation by EGFR was detected using a Terbium-conjugated anti-phospho-Tyrosine antibody (Tb-PT66 antibody, Invitrogen # PV3557).

Human B cells = assay: Human Primary B Cell Proliferation Assay; format: cell-based; conditions: 50 μg/mL anti-human IgM F(ab')2 for 72 hours, 3H-thymidine incorporation
Method: Human B cells were purified from buffy coats using the human B cell RosetteSep kit per manufacturer's instructions. Purified cells were resuspended in RPMI-10% HIFCS, 2 mM L-glutamine, 100 U/mL penicillin, 100 μg/ml streptomycin, incubated with compounds for 1 hour at 37° C. and then stimulated with 50 μg/mL anti-human IgM F(ab′)2 for 72 hours. ^3H-thymidine was included in the culture media for the final 8-16 hours. Cells were harvested and ^3H-thymidine incorporation was measured.

human full-length BTK Kinase, sequence (Q06187 whole entry, the tested form may be a part): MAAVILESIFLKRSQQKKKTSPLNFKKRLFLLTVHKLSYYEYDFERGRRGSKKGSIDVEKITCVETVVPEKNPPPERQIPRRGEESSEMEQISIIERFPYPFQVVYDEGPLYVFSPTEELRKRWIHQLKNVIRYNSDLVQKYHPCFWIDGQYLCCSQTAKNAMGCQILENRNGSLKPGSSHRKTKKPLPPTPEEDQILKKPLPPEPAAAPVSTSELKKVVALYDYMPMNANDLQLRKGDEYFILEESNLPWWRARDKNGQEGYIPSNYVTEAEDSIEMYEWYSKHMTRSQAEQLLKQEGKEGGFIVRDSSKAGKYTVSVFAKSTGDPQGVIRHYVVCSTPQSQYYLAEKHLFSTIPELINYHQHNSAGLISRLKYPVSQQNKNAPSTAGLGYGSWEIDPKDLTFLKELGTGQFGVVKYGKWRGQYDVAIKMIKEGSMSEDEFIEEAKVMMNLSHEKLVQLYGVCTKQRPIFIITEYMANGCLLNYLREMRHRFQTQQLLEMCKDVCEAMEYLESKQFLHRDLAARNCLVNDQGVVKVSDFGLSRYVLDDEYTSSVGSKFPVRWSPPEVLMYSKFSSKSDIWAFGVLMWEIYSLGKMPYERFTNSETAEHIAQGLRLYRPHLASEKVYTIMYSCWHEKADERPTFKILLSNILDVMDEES
human EGFR kinase domain, sequence (P00533 712-979): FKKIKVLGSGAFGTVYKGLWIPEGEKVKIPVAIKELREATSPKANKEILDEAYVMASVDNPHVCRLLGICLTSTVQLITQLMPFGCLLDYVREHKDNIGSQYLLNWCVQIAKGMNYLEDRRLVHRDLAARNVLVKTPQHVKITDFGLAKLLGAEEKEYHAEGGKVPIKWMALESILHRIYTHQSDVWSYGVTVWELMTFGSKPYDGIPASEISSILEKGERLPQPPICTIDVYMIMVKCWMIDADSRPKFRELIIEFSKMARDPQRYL

SMILES	IC50 [1] [nM]	IC50 (human EGFR kinase domain) [nM]	IC50 (Human B cells) [nM]
N#C/C=C/C(=O)N1CCC[C@@H](n2nc(-c3ccc(Oc4ccc(F)cc4F)cc3)c(C(N)=O)c2N)C1 [Example 152, 5-amino-1-{(3R)-1-[(2E)-3-cyanoprop-2-enoyl]piperidin-3-yl}-3-[4-(2,4-difluorophenoxy)phenyl]-1H-pyrazole-4-carboxamide]	1.5		
NC(=O)c1c(-c2ccc(Oc3ccc(F)cc3F)cc2)nn([C@@H]2CCCN(C(=O)/C(F)=C/CO)C2)c1N [Example 146, 5-amino-3-[4-(2,4-difluorophenoxy)phenyl]-1-{(3R)-1-[(2Z)-2-fluoro-4-hydroxybut-2-enoyl]piperidin-3-yl}-1H-pyrazole-4-carboxamide]	48		
NC(=O)c1c(-c2ccc(Oc3ccc(Cl)cc3)cc2)nn([C@@H]2CCCN(C(=O)/C=C/CO)C2)c1N [Example 131, 5-amino-3-[4-(4-chlorophenoxy)phenyl]-1-{(3R)-1-[(2E)-4-hydroxybut-2-enoyl]piperidin-3-yl}-1H-pyrazole-4-carboxamide]	2.3	2200	
NC(=O)c1c(-c2ccc(Oc3ccc(F)cc3F)cc2)nn([C@@H]2CCCN(C(=O)/C=C/CO)C2)c1N [Example 151, 5-amino-3-[4-(2,4-difluorophenoxy)phenyl]-1-{(3R)-1-[(2E)-4-hydroxybut-2-enoyl]-piperidin-3-yl}-1H-pyrazole-4-carboxamide]	2.3	12100	
C[C@@H](O)/C=C/C(=O)N1CCC[C@@H](n2nc(-c3ccc(Oc4ccc(F)cc4F)cc3)c(C(N)=O)c2N)C1 [Example 149, 5-amino-3-(4-(2,4-difluorophenoxy)phenyl)-1-((R)-1-((R,E)-4-hydroxypent-2-enoyl)piperidin-3-yl)-1H-pyrazole-4-carboxamide]	52		
NC(=O)c1c(-c2ccc(Oc3ccc(F)cc3F)cc2)nn([C@@H]2CCCN(C(=O)/C=C/CF)C2)c1N [Example 145, 5-amino-3-[4-(2,4-difluorophenoxy)phenyl]-1-{(3R)-1-[(2E)-4-fluorobut-2-enoyl]piperidin-3-yl}-1H-pyrazole-4-carboxamide]	2.8	2180	
C[C@H](O)/C=C/C(=O)N1CCC[C@@H](n2nc(-c3ccc(Oc4ccc(F)cc4F)cc3)c(C(N)=O)c2N)C1 [Example 148, 5-amino-3-[4-(2,4-difluorophenoxy)phenyl]-1-{(3R)-1-[(2E,4S)-4-hydroxypent-2-enoyl]piperidin-3-yl}-1H-pyrazole-4-carboxamide]	39		
NC(=O)c1c(-c2ccc(Oc3ncc(Cl)cc3F)cc2)nn([C@@H]2CCCN(C(=O)/C=C/CO)C2)c1N [Example 154, 5-amino-3-{4-[(5-chloro-3-fluoropyridin-2-yl)oxy]phenyl}-1-{(3R)-1-[(2E)-4-hydroxybut-2-enoyl]piperidin-3-yl}-1H-pyrazole-4-carboxamide]	49		
NC(=O)c1c(-c2ccc(Oc3ccc(Cl)cc3)cc2)nn([C@@H]2CCCN(C(=O)/C=C/CF)C2)c1N [Example 132, 5-amino-3-[4-(4-chlorophenoxy)phenyl]-1-{(3R)-1-[(2E)-4-fluorobut-2-enoyl]piperidin-3-yl}-1H-pyrazole-4-carboxamide]	1.1		
NC(=O)c1c(-c2ccc(Oc3ncc(Cl)cc3F)cc2)nn([C@@H]2CCCN(C(=O)/C=C/C(F)F)C2)c1N [Example 155, 5-amino-3-{4-[(5-chloro-3-fluoropyridin-2-yl)oxy]phenyl}-1-{(3R)-1-[(2E)-4,4-difluorobut-2-enoyl]piperidin-3-yl}-1H-pyrazole-4-carboxamide]	0.7	106	2
CC(C)(O)/C=C/C(=O)N1CCC[C@@H](n2nc(-c3ccc(Oc4ccc(F)cc4F)cc3)c(C(N)=O)c2N)C1 [Example 147, 5-amino-3-[4-(2,4-difluorophenoxy)phenyl]-1-{(3R)-1-[(2E)-4-hydroxy-4-methylpent-2-enoyl]piperidin-3-yl}-1H-pyrazole-4-carboxamide]	241		
NC(=O)c1c(-c2ccc(Oc3ncc(Cl)cc3F)cc2)nn([C@@H]2CCCN(C(=O)/C=C/CF)C2)c1N [Example 156, 5-amino-3-{4-[(5-chloro-3-fluoropyridin-2-yl)oxy]phenyl}-1-{(3R)-1-[(2E)-4-fluorobut-2-enoyl]piperidin-3-yl}-1H-pyrazole-4-carboxamide]	1.4	381	
